Measurements as given in patent publication US20120046292A1, “[…] COMPOUND” (ASTELLAS PHARMA INC., priority 2009, published 2012).

Columns and labels:
human DGAT1 (hDGAT1) = biological target: T1, human DGAT1 (hDGAT1) (Homo sapiens, UniProt O75907); experiment: DGAT1 inhibitory activity test (hDGAT1-expressing Sf9 cell microsome, [14C]oleoyl-CoA, FlashPlate); assay type: biochemical; conditions: test substance 1, 10, 100, 1000 nM, linear regression
T1 construct: made in house; host or cells: Sf9 insect cells (Bac-to-Bac baculovirus, pFastBac1); microsomal fraction
T1 sequence (O75907 1-488): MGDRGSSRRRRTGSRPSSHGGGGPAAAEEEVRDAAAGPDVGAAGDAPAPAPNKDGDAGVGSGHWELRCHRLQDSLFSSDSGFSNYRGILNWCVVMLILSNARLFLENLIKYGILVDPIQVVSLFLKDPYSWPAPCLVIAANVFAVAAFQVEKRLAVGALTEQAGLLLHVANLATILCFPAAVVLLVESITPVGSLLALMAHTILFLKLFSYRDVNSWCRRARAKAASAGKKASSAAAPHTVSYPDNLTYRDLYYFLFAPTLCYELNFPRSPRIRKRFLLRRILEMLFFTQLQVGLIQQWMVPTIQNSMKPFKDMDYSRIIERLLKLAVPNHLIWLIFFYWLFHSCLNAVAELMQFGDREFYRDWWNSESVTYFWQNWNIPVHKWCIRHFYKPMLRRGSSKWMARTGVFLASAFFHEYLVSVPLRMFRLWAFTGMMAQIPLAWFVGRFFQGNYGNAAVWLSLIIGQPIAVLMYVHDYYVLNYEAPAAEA
Experimental: (1) Production of Bacmid-hDGAT1
A base sequence encoding a human DGAT1 (hDGAT1) (1467 bases of CDS in Genbank Accession No. NM_012079) was cloned and ligated to pFastBac™1 (Invitrogen) to produce a pFastBac1-hDGAT1. From this plasmid, an engineered baculovirus liquid (Bacmid-hDGAT1) was prepared using a Bac-to-Bac (registered trademark) Baculovirus Expression System (Invitrogen).
(2) Preparation of Sf9 Cell-Derived DGAT1-Expressing Microsomal Fraction
Sf9 cells were seeded into a 225-cm^2 Flask Angled Neck (CORNING) to a confluency of 80%, and statically cultured in an incubator at 27° C. using an EX-CELL™ 420 INSECT SERUM-FREE MEDIUM (SAFC Biosciences, Inc.). After 24 hours, the culture medium was taken out, and a liquid obtained by diluting 1.67 mL of an engineered baculovirus medium (Bacmid-hDGAT1) with 3.33 mL of an EX-CELL™ 420 INSECT SERUM-FREE MEDIUM was added thereto, and the resultant was cultured under shaking in an incubator at 27° C. for 1 hour. Thereafter, 25 mL of an EX-CELL™ 420 INSECT SERUM-FREE MEDIUM was added thereto, followed by culturing in an incubator at 27° C. for 72 hours. The infected cells were harvested, diluted with 1.5 mL of a buffer A (40 mM phosphate buffer (pH 7.2) including 100 mM sucrose and 50 mM KCl) containing a Complete Protease Inhibitor Cocktail (Roche Diagnostics K. K.), and then subjected to sonication using a SONIFER 250 (BRANSON Ultrasonic Corp.). This suspension was centrifuged at 10000×g for 5 minutes and the supernatant was recovered. This supernatant was centrifuged at 100000×g for 60 minutes and the resulting precipitate was dissolved in 600 μL of a buffer A and then subjected to sonication again, to prepare a suspension. This suspension was taken as a hDGAT1-expressing Sf9 cell microsome.
(3) DGAT1 Activity Measurement
For the DGAT1 activity, a test substance in DMSO (final DMSO concentration 2%) in which 100 mM Tris-HCl (pH 8.0), 2 mM MgCl2, 0.01% BSA, a hDGAT1-expressing Sf9 cell microsome, 200 μM dioleoyl glycerol or dipalmitoyl glycerol, 8.9 μM [^14C] oleoyl-CoA, and 1.68% acetone were added to a phospholipid FlashPlate (PerkinElmer Life Science). The reaction was carried out at 30° C. for 60 minutes, and then twice the amount (100 μL), relative to the reaction liquid, of a mixture of isopropyl alcohol:0.1 M carbonate buffer (pH 9.0) at a ratio of 1:1 was added thereto to stop the reaction. The next day, the count was measured with a TopCount microplate scintillation counter (PerkinElmer Life Science).
The count without addition of the test substance was taken as a control (TG with addition of DMSO). The count without addition of the test substance and the microsome was taken as a Blank TG. The DGAT1 inhibitory rate of the test substance was calculated by the following calculation equation:
Inhibitory Rate (%)=(TG with addition of test substance−Blank TG)÷(TG with addition of DMSO−Blank TG)×100
The DGAT1 inhibitory rates were calculated when the concentrations of the test substance in the reaction liquid were 1, 10, 100, and 1000 nM. Linear regression was performed using the inhibitory rates obtained, and a test substance concentration (IC50) required to inhibit the DGAT1 activity by 50% was calculated by an SAS 8.2 software package (SAS Institute Japan, Ltd., Tokyo, Japan).

male C57BL/6J mice = experiment: Inhibitory action on increase in triglyceride (TG) by fat administration; assay type: in vivo; conditions: administration amount 0.3 mg/kg; fat (intralipid 20%, 10 mL/kg) orally 20 hours after dosing; plasma TG 2 hours after fat; control 0.5% methyl cellulose group
Experimental: 8- to 15-week male C57BL/6J mice were fasted for four hours, and the test substances were administered to the mice. The test substance was administered after suspending it in a 0.5% methyl cellulose solution. After 20 hours, fat (intralipid 20%, Terumo (Fresenius), 10 mL/kg) was orally administered thereto. Immediately before and after 2 hours from administration of the fat, blood was collected from the tail vein to obtain plasma. For measurement of the TG in plasma, a TG increase in the plasma by fat administration was calculated using a Triglyceride E Test Wako (Wako Pure Chemical Industries Ltd.). Using the TG increase in the plasma in a group to which 0.5% methyl cellulose had been administered as a control, the TG increase inhibitory rate when the test substance had been administered was determined.

DIO mice = experiment: Anti-obesity action in DIO mice; assay type: in vivo; conditions: oral, once per day, administration period 2 weeks, 1 mg/kg; high-fat diet C57BL/6J mice; solvent group weight increase = 100%
Experimental: High-fat diet formula (Research Diet D12492, 60 kcal % fat) were given to 9-week male C57BL/6J mice. For acclimatization of the mice, the solvent used in the test from the 4th week was administered thereto. From the 5th week, the test substance was orally administered once or twice daily. The test substance was administered after suspending it in a 0.5% methyl cellulose solution. Administration was performed repeatedly for 2 or 4 weeks, and variation in the weights due to the test substance administration was observed. By taking the increase in the weight in the group to which the solvent had been administered within a test period as 100%, the weight increase inhibitory rate of the test substance was calculated.

Compound | IC50 (human DGAT1 (hDGAT1)) | TG increase inhibitory rate (male C57BL/6J mice) | weight increase inhibitory rate (DIO mice)
CCCCCC12CCC(C(=O)NCCNC(=O)c3ccc(O[C@H]4CC[C@@H](C(=O)O)CC4)cc3)(CC1)CC2 [Example 20] | 2.1 nM |  | 
O=C(NCCNC(=O)c1ccc(O[C@H]2CC[C@@H](C(=O)O)CC2)cc1)Nc1ccccc1Cl [Example 56] | 14 nM |  | 
O=C(NCCNC(=O)c1ccc(C2CC2)cc1)c1ccc(O[C@H]2CC[C@@H](C(=O)O)CC2)cc1 [Example 79] | 2.3 nM | 79% | 
O=C(NCCNC(=O)c1ccc2ccccc2c1)c1ccc(O[C@H]2CC[C@@H](C(=O)O)CC2)cc1 [Example 83] | 5.2 nM |  | 
Cc1cc(C(=O)NCCNC(=O)c2ccc(O[C@H]3CC[C@@H](C(=O)O)CC3)cc2)ccc1Cl [Example 106] | 5.3 nM |  | 
O=C(NCCNC(=O)c1ccc(C2CC2)c(Cl)c1)c1ccc(O[C@H]2CC[C@@H](C(=O)O)CC2)c(F)c1 [Example 135] | 5.8 nM |  | 
O=C(NCCNC(=O)c1ccc(O[C@H]2CC[C@@H](C(=O)O)CC2)cc1F)c1ccc2ccccc2c1 [Example 169] | 2.7 nM | 75% | 
O=C(NCCNC(=O)c1c(F)cc(O[C@H]2CC[C@@H](C(=O)O)CC2)cc1F)c1ccc2ccccc2c1 [Example 299] | 6.7 nM |  | 
O=C(NCCNC(=O)c1ccc(O[C@H]2CC[C@@H](C(=O)O)CC2)c(F)c1F)c1ccc2ccccc2c1 [Example 300] | 5.6 nM |  | 
O=C(NCCNC(=O)c1ccc(O[C@H]2CC[C@@H](C(=O)O)CC2)c(F)c1F)c1ccc(Cl)s1 [Example 490] | 3.8 nM | 92% | 98%
O=C(NCCNC(=O)c1ccc(O[C@H]2CC[C@@H](C(=O)O)CC2)cc1F)c1cc2cc(F)ccc2s1 [Example 531] | 0.1 nM |  | 
O=C(O)C[C@H]1CC[C@@H](Oc2cc(F)c(C(=O)NCCNC(=O)c3ccc4ccccc4c3)cc2F)CC1 [Example 571] | 1.6 nM |  | 
O=C(O)CC1CCN(c2c(F)cc(C(=O)NCCNC(=O)c3sc4ccccc4c3Cl)cc2F)CC1 [Example 604] | 32 nM |  | 

Continued, in another order:

IC50 (human DGAT1 (hDGAT1)) | Compound | TG increase inhibitory rate (male C57BL/6J mice) | weight increase inhibitory rate (DIO mice)
20 nM | O=C(O)CC1CCC(c2ccc(C(=O)NCCNC(=O)c3ccc(Cl)cc3)cc2)CC1 (stereo not drawn) [Example 6, {4-[4-({2-[(4-chlorobenzoyl)amino]ethyl}carbamoyl)phenyl]cyclohexyl}acetic acid] |  | 
21 nM | CCOc1ccc(C(=O)NCCNC(=O)c2ccc(O[C@H]3CC[C@@H](C(=O)O)CC3)cc2)cc1 [Example 18] |  | 
0.4 nM | O=C(NCCNC(=O)c1ccc(O[C@H]2CC[C@@H](C(=O)O)CC2)cc1)c1ccc(Oc2ccc(F)cc2)cc1 [Example 63] |  | 
9.9 nM | O=C(NCCNC(=O)c1ccc(F)c(C(F)(F)F)c1)c1ccc(O[C@H]2CC[C@@H](C(=O)O)CC2)cc1 [Example 82] |  | 
4.2 nM | O=C(NCCNC(=O)c1cc2cc(OC(F)(F)F)ccc2[nH]1)c1ccc(O[C@H]2CC[C@@H](C(=O)O)CC2)cc1 [Example 148] |  | 
8.1 nM | Cc1cc(O[C@H]2CC[C@@H](C(=O)O)CC2)ccc1C(=O)NCCNC(=O)c1ccc(C(F)(F)F)cc1 [Example 187] |  | 
14 nM | CCOc1ccc(C(=O)NCCNC(=O)c2ccc(O[C@H]3CC[C@@H](C(=O)O)CC3)nc2)cc1Cl [Example 245] |  | 
1 nM | O=C(NCCNC(=O)c1cc(F)c(O[C@H]2CC[C@@H](C(=O)O)CC2)cc1F)c1ccc2ccccc2c1 [Example 454] | 106% | 93%
1.7 nM | O=C(NCCNC(=O)c1sc2ccccc2c1Cl)c1ccc(O[C@H]2CC[C@@H](C(=O)O)CC2)cc1 [Example 469] | 109% | 
5.2 nM | O=C(NCCNC(=O)N1CCC(c2ccc(Cl)cc2)CC1)c1ccc(O[C@H]2CC[C@@H](C(=O)O)CC2)c(F)c1F [Example 480] |  | 
